Test results taken from patent US20010041801A1, “Water soluble fullerenes with antiviral activity” (The Regents of the University of California, priority 1994, published 2001).
Read-outs that look alike come from different tables or passages of the source.

Assays:
[1] = Solubility in water; details: physiologic pH, generally between pH 6 and 8
[2] = system: HIV-1 LAI; assay: Antiviral activity in acutely infected human PBMC, virus RT level; type: cell-based; details: acutely infected, virus RT level on day 6, read-out: Antiviral Activity (EC50) in PBMC infected with HIVLAI
Experimental: (§1) Compound 2c was evaluated for antiviral activity in cells acutely and chronically infected with human immunodeficiency virus (HIV). Reverse transcriptase (RT) levels associated with virus were determined with virus concentrated from cell culture supernatants by high-speed centrifugation to reduce the chances of drug carryover in the enzyme assay using the method described in R. F. Schinazi, et al., Antimicrob. Agents Chemother., 36:2423-2431, 1992.

[3] = system: HIV-2ROD; assay: as above; type: cell-based; details: acutely infected, virus RT level on day 6, read-out: Antiviral Activity (EC50) in PBMC infected with HIV-2ROD
Experimental: as §1

[4] = system: CEM cells; assay: Cytotoxicity in CEM cells; type: cell-based; details: cell counts on day 6
[5] = target: HIV-1 RT (Human immunodeficiency virus type 1 group M subtype B, UniProt P04585); assay: Inhibition of recombinant p66/51 HIV-1 RT, poly(rA)n.oligo(T)12-18 template-primer; type: biochemical; details: cell-free; AZT-5′-triphosphate used for AZT; read-out: IC50 Polymerases: HIV-1 RT
Experimental: The compound was also evaluated for its inhibitory effect on recombinant p66/51 HIV-1 RT by using poly(rA)n.oligo(T)12-18 as the template-primer as described in Schinazi, et al. (1992, supra). Compound 2c was active against this enzyme, with a median inhibitory concentration (1C50) of 4.6 μM. This value was of the same order of magnitude as that noted for the antiviral assays (TABLE 3). […] AZT-5′ triphosphate and phosphonoformate (PFA), used as positive controls, were effective and selective against HIV-1 RT.

[6] = system: PBMC; assay: Cytotoxicity in uninfected PBMC; type: cell-based, human; details: thymidine uptake day 2 and cell counts day 6
[7] = target: DNA polymerase α (Homo sapiens, UniProt P09884); assay: Inhibition of cellular DNA polymerase α, cell-free; type: biochemical; details: AZT-5′-triphosphate used for AZT, read-out: IC50 Polymerases: DNA Polymerase α
Sequence of DNA polymerase α (P09884 whole entry): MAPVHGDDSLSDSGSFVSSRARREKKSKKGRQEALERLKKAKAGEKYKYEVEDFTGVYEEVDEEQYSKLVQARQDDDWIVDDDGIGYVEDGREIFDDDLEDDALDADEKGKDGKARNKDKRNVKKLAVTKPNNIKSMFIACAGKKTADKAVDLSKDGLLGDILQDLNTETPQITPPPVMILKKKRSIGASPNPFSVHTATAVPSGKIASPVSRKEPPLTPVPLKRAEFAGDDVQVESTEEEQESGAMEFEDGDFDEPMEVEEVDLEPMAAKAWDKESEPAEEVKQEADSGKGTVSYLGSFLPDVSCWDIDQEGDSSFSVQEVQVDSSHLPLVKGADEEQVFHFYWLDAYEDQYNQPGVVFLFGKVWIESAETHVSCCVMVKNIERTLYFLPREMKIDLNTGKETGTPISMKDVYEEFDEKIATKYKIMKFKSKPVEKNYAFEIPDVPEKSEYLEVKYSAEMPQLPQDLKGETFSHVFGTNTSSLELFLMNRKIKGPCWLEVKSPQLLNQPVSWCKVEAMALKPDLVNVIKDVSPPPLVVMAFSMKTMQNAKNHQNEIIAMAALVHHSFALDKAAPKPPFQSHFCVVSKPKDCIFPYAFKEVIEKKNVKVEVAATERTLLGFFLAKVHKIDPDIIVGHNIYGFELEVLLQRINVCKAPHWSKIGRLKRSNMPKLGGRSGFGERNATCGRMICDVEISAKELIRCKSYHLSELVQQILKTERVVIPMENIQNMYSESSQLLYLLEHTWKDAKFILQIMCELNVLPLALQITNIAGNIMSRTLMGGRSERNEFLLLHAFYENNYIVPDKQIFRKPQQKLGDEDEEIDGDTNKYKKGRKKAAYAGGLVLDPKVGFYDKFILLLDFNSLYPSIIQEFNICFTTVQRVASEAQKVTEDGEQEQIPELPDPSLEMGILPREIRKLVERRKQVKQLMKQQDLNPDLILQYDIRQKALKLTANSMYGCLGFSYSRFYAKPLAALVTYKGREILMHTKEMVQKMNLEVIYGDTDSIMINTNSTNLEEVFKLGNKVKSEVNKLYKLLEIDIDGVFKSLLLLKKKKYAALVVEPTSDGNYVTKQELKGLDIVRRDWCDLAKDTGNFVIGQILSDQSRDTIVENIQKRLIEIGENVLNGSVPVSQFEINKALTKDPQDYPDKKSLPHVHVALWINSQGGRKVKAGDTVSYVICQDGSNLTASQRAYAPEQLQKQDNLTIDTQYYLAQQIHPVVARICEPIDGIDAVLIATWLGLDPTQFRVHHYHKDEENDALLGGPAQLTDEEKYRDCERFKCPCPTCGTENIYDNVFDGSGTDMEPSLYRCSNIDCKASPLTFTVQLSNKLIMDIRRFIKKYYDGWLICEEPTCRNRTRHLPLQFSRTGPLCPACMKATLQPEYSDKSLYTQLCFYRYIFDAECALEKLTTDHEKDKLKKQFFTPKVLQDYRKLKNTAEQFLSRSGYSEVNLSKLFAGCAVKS
Sequence of DNA polymerase α (Q14181 whole entry partner): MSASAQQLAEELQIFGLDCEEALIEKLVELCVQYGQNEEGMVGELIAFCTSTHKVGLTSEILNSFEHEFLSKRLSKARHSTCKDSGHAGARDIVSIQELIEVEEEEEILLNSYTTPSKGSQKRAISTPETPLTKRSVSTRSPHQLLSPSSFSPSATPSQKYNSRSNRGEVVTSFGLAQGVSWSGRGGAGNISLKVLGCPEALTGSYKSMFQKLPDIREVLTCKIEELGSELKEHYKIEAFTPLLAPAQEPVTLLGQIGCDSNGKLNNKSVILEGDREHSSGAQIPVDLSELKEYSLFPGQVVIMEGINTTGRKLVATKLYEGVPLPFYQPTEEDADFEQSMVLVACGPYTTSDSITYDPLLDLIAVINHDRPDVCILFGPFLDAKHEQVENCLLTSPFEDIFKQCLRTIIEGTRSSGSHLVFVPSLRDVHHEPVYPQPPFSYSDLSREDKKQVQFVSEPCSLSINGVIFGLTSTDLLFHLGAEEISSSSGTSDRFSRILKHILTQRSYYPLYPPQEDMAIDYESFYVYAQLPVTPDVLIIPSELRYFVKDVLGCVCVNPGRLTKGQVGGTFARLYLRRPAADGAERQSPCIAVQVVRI
Sequence of DNA polymerase α (P49642 whole entry partner): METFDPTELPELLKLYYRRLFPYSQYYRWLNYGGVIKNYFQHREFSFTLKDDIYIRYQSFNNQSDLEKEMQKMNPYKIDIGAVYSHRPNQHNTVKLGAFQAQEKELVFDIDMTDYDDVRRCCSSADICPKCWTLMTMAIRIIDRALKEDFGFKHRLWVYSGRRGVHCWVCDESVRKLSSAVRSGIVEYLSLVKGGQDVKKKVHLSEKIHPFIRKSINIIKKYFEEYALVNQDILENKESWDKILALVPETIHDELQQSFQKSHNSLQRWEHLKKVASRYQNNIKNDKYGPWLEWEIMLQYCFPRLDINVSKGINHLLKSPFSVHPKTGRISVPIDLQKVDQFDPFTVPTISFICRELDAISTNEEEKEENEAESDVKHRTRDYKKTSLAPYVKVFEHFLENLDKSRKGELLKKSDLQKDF
Sequence of DNA polymerase α (P49643 whole entry partner): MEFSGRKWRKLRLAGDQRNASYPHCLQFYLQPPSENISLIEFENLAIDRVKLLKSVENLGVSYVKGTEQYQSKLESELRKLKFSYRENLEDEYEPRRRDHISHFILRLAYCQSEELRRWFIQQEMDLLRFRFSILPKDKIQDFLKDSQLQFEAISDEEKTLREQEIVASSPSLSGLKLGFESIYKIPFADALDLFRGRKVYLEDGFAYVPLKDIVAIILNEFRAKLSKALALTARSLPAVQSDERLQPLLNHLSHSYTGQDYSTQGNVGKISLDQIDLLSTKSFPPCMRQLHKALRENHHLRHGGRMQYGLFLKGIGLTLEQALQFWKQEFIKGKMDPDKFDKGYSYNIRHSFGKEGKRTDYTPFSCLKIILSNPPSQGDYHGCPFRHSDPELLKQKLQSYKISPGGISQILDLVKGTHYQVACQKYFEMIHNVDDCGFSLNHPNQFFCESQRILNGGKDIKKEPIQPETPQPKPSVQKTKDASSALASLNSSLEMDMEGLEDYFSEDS

[8] = system: Vero cells; assay: Cytotoxicity in Vero cells; type: cell-based; details: day 3
[9] = system: nevirapine (BI-RG587)-resistant HIV-1; assay: Susceptibility of nevirapine-resistant HIV-1; type: cell-based
[10] = target: T1, HIV-1 protease (HIVP) (Human immunodeficiency virus type 1 group M subtype B, UniProt P04585); assay: Inhibition of HIV-1 protease, HPLC assay with kinetic analysis; type: biochemical; details: 50 mM NaAc pH 5.5, 1.0 M NaCl; 5 min preincubation; fit to competitive inhibition; read-out: Ki
T1 construct: HIV produces a small, dimeric aspartyl protease which specifically cleaves the polyprotein precursors
Experimental: The ability of compound 2c to inhibit the HIVP was assayed with an HPLC method as described in R. L DesJarlais, et al., Proc. Natl. Acad. Sci U.S.A., 87:6644-6648, 1990. […] Assays were performed in buffer containing 50 mM NaAc pH 5.5, 1.0 M NaCl, 5% glycerol, 1% DMSO, and 2 mM EDTA. Inhibitor was preincubated with ≈0.05 μg of enzyme for 5 minutes at which time the reaction was initiated by addition of substrate. The reaction was quenched at <15% product formation by the addition of 15 μL of 10% TFA. The cleavage products of the substrate peptide H-Lys-Ala-Arg-Val-Tyr-p-nitro-Phe-Glu-Ala-Ile-NH2 (made by Bachem, Philadelphia, Pa.) were assayed by HPLC using a 10-40% (acetonitrile, 0.1% TFA): (water, 0.1% TFA) gradient over 30 minutes at 1 mL/minute. Product was quantitated by integration of peak areas followed by comparison to product standard curves.
Determination of kinetic constants was done with the program KinetAsyst (IntelliKinetics) by fitting of the data to the equation […]] which describes competitive inhibition.

[11] = system: HIV-1G910-6; assay: microbe, parasite or virus in culture; type: cell-based
Source text: (§2) The availability of AZT-resistant and -susceptible viruses allowed us to evaluate the compounds of this invention for their susceptibilities to these viruses in acutely infected PBMC in two experiments. […] In the same assay, the EC50 for TIBO [(+)-(5s)-4,5,6,7-tetrahydro-5methyl-6-(3-methyl-2-butenyl)imidazo(4,5,1-jk)(1,4)benzodiazepin-2(1 H)-thione] R82150 increased >500-fold (data not shown).

[12] = Cytotoxicity in H9 cells; type: cell-based, human; details: human, H9 cells; cell counts on day 6
[13] = Cytotoxicity in CEM cells; type: cell-based; details: human, CEM cells; cell counts on day 6
[14] = Cytotoxicity in uninfected PBMC; type: cell-based, human; details: human, uninfected PBMC; thymidine uptake day 2 and cell counts day 6
[15] = Cytotoxicity in Vero cells; type: cell-based; details: African green monkey, Vero cells; day 3
[16] = system: HIV-1III; assay: Antiviral activity in chronically infected H9 cells, virus RT level; type: cell-based
Experimental: as §1

[17] = system: HIV-1 HI 12.2; assay: Susceptibility of pretherapy AZT-susceptible isolate in acutely infected PBMC; type: cell-based; details: Human immunodeficiency virus 1, PBMC, read-out: EC50 against pretherapy isolate
Source text: as §2

For “4,4′-Bis(2-aminoethyl)diphenyl C61 [hydrochloride salt of compound 2b]”, the “water solubility” value [1] was “not to be soluble”.

For `O=C(O)P(=O)(O)O` [PFA, phosphonoformate, reference compound], the EC50 [2] was 0.43 µM, the EC50 [3] was 0.44 µM and the IC50 [4] was over 100 µM. For the same molecule, the IC50 [5] was 0.32 µM, the IC50 [6] was over 640 µM and the IC50 [7] was over 100 µM. The IC50 [8] was over 100 µM.

With `CC(C)=CCN1Cc2cccc3[nH]c(=S)n(c23)C[C@@H]1C` [TIBO R82150, (+)-(5s)-4,5,6,7-tetrahydro-5methyl-6-(3-methyl-2-butenyl)imidazo(4,5,1-jk)(1,4)benzodiazepin-2(1 H)-thione, reference compound] the “increase in resistance, nevirapine-resistant vs -susceptible HIV-1” value [9] was over 500 fold.

Work on `NCCc1ccc(C2(c3ccc(CCN)cc3)C34c5c6c7c8c9c%10c(c%11c%12c3c3c5c5c%13c6c6c7c7c9c9c%14c%10c%10c%11c%11c%12c%12c3c3c5c5c%13c%13c6c6c7c9c7c9c%14c%10c%10c%11c%11c%12c3c3c5c5c%13c6c7c6c9c%10c%11c3c56)C824)cc1` [Compound 2b, 4,4′-Bis(2-aminoethyl)diphenyl C61] yielded a Ki [10] of about 2 µM.

Molecule `Cc1cn([C@H]2C[C@H](N=[N+]=[N-])[C@@H](CO)O2)c(=O)[nH]c1=O` [AZT, 3′-Azido-3′-deoxythymidine, reference compound] has an EC50 ([2]; Human immunodeficiency virus 1, PBMC, 144 h) of 0.004 µM, an EC50 ([3]; Human immunodeficiency virus 2, PBMC, 144 h) of 0.003 µM and an EC50 ([11]; Human immunodeficiency virus 1, PBMC, read-out: EC50 against AZT-resistant HIV-1, acutely infected PBMC / lymphocytes) of 0.18 µM. The “increase of EC50, AZT-resistant vs pretherapy virus” value ([11]; virus pair HIV-1 HI 12.2 / HIV-1G910-6) was “more than 180 fold”, the IC50 at 6 days [12] was 60 µM and the IC50 at 6 days [13] was 13 µM. It also gave an IC50 [5] of 0.04 µM, an IC50 [14] of over 100 µM and an IC50 [7] of over 100 µM. The IC50 at 3 days [15] was 23 µM, the “effect in chronically infected H9 cells” value [16] was “no effect” and the EC50 ([16]; Human immunodeficiency virus 1, H9, 144 h, chronically infected, virus RT level after 6 days of treatment, read-out: Antiviral Activity (EC50) in H9 cells infected with HIV-1III) was over 100 µM. For the same molecule, the EC50 [17] was under 0.001 µM.
